Literature values as cited in US20220241230A1, “DICLOFENAC SACHET COMPOSITION” (Patrin Pharma, Inc., priority 2021, published 2022).

Legend:
[1] = commercially available sugar coated tablets
[2] = 100 mg and 50 mg tablets, versus placebo
[3] = 50 mg and 100 mg sugar coated tablets

| terminal half-life [1] | SMILES | incidence of headache recurrence within 48 hours of treatment (50 mg and 100 mg immediate release tablets, versus placebo, statistical significance not reported) | effectiveness against phonophobia two hours after treatment [3] | effectiveness against photophobia eight hours after treatment [3] | effectiveness against photophobia two hours after treatment [3] | relief of migraine pain within two hours of treatment [3] | effectiveness against photophobia eight hours after treatment, 50 mg dose (50 mg sugar coated tablets) | effectiveness against migraine pain within two hours of treatment [2] | effectiveness against phonophobia and photophobia within two hours [2] |
| --- | --- | --- | --- | --- | --- | --- | --- | --- | --- |
| about 1.9 hours | O=C(O)Cc1ccccc1Nc1c(Cl)cccc1Cl [diclofenac potassium, Diclofenac potassium] | higher incidence of headache recurrence than patients treated with placebo | only the 100 mg dose was effective | both doses were effective | neither dose was effective | ability of both doses to relieve migraine pain | effective | – | – |
| – | O=C(O)Cc1ccccc1Nc1c(Cl)cccc1Cl [diclofenac, [(2,6-dichloro-anilino)-2-phenyl]-2-acetic acid] | – | – | – | – | – | – | both strengths were effective | only the 100 mg strength was effective |
